Test results from ChEMBL document CHEMBL2440110, “Synthesis of azide derivative and discovery of glyoxalase pathway inhibitor against pathogenic bacteria” (Bioorg Med Chem Lett, 2013).
In brackets after ≈: the same amount, converted by molar mass.

Legend:
PBMC = test: Cytotoxicity against PBMC (unknown origin) at 0.05 mM after 8 hrs by MTT assay; type: cell-based; conditions: 50 µM
Staphylococcus aureus = test: Antibacterial activity against Staphylococcus aureus after 24 hrs by Alamar blue assay; type: functional
[1] = tested on: Burkholderia thailandensis; test: Antibacterial activity against Burkholderia thailandensis; type: functional
[2] = tested on: Mycolicibacterium smegmatis; test: Antibacterial activity against Mycobacterium smegmatis; type: functional

## O=C(O)CNC(=O)C(CS)NC(=O)CCC(NC(=O)OCc1ccccc1)C(=O)O (stereo unspecified)
PBMC
  Activity: Non-toxic
Staphylococcus aureus
  MIC90: 20 µg/mL (≈ 45.3 µM)
[1]
  MIC90: 12.5 µg/mL (≈ 28.3 µM)

## COC(=O)[C@@H](N=[N+]=[N-])[C@@H](OC(=O)CNC(=O)C(CS)NC(=O)CCC(NC(=O)OCc1ccccc1)C(=O)O)C(=O)OC (stereo partly specified)
PBMC
  Activity: Non-toxic
[2]
  MIC90: 6 µg/mL (≈ 9.58 µM)
Staphylococcus aureus
  MIC90: 5 µg/mL (≈ 7.98 µM)
